# Laboratory results reported in ChEMBL document CHEMBL1125839, “Synthesis and pharmacological evaluation of ether and related analogues of delta 8-, delta 9-, and delta 9,11-tetrahydrocannabinol” (J Med Chem, 1991).
# Legend:
# Mus musculus [1] = assay: The compound was tested in vivo for ring immobility in mice; type: functional
# Mus musculus [2] = assay: The compound was tested in vivo for tail-flick latency in mice; type: functional
# Mus musculus [3] = assay: The compound was tested in vivo for hypothermic activity in mice; type: functional
# Mus musculus [4] = assay: The compound was tested in vivo for locomotor activity in mice; type: functional
# Cannabinoid receptor [5] = target: T1, Cannabinoid receptor (Rattus norvegicus, UniProt Q9QZN9+P20272); assay: The compound was tested in vitro for binding activity against THC cannabinoid receptor site, using 3H-CP-55940 as the radioligand.; type: protein assay
# Cannabinoid receptor [6] = target: T1, Cannabinoid receptor; assay: The compound was tested in vitro for binding activity against THC cannabinoid receptor site, using 3H-CP-55940 as the radioligand; type: protein assay
smiles,measurement,setting,value
C=C1CC[C@@H]2[C@@H](C1)c1c(O)cc(CCCCC)cc1OC2(C)C,ED50,Mus musculus [1],24 mg/kg
same,MPE50,Mus musculus [2],5.4 mg/kg
same,ED50,Mus musculus [3],56 mg/kg
same,ED50,Mus musculus [4],15 mg/kg
CCCCCc1cc(OCCN2CCOCC2)c2c(c1)OC(C)(C)[C@@H]1CC=C(C)C[C@@H]21,ED50,Mus musculus [1],118 mg/kg
same,MPE50,Mus musculus [2],>100 mg/kg
same,ED50,Mus musculus [3],> 100 mg/kg
same,ED50,Mus musculus [4],> 100 mg/kg
same,IC50,Cannabinoid receptor [5],4.3 µM
CCCCCc1cc(OC)c2c(c1)OC(C)(C)[C@@H]1CCC(C)=C[C@@H]21,ED50,Mus musculus [1],17 mg/kg
same,MPE50,Mus musculus [2],116 mg/kg
same,ED50,Mus musculus [3],267 mg/kg
same,IC50,Cannabinoid receptor [6],10 µM
same,ED50,Mus musculus [4],> 100 mg/kg
CCCCCc1cc(OC)c2c(c1)OC(C)(C)[C@@H]1CC=C(C)C[C@@H]21,ED50,Mus musculus [1],> 100 mg/kg
same,MPE50,Mus musculus [2],33 mg/kg
same,ED50,Mus musculus [3],> 100 mg/kg
same,IC50,Cannabinoid receptor [6],3.2 µM
same,ED50,Mus musculus [4],> 100 mg/kg
C=C1CC[C@@H]2[C@@H](C1)c1c(O)cc(CCC)cc1OC2(C)C,ED50,Mus musculus [1],> 30 mg/kg
same,MPE50,Mus musculus [2],15 mg/kg
same,ED50,Mus musculus [3],> 30 mg/kg
same,IC50,Cannabinoid receptor [6],1.4 µM
same,ED50,Mus musculus [4],20 mg/kg
C=C1C[C@H]2c3c(O)cc(CCCCC)cc3OC(C)(C)[C@@H]2C[C@H]1O,ED50,Mus musculus [1],63 mg/kg
same,MPE50,Mus musculus [2],25 mg/kg
same,ED50,Mus musculus [3],50 mg/kg
same,IC50,Cannabinoid receptor [6],1.2 µM
same,ED50,Mus musculus [4],20 mg/kg
CCCCCc1cc(O)c2c(c1)OC(C)(C)[C@@H]1CC=C(C)C[C@@H]21 [DELTA-8-TETRAHYDROCANNABINOL],ED50,Mus musculus [1],5.2 mg/kg
same,MPE50,Mus musculus [2],1.5 mg/kg
same,ED50,Mus musculus [4],1.9 mg/kg
CCCCCc1cc(O)c2c(c1)OC(C)(C)[C@@H]1CCC(C)=C[C@@H]21 [DRONABINOL],ED50,Mus musculus [1],1.5 mg/kg
same,MPE50,Mus musculus [2],1.4 mg/kg
same,ED50,Mus musculus [3],1.4 mg/kg
same,ED50,Mus musculus [4],1 mg/kg
